Measured values reported in patent US11230717B2, “Plants having increased tolerance to herbicides” (BASF SE, priority 2013, dated 2022).
Several values for one entry are separate records, joined by “and”; a condition that tells them apart may be missing. Equal entries are not always repeated.

Key:
Test in all cases: HPPD activity assay, in vitro characterization of HPPD mutants
Assay type in all cases: biochemical
[1] = target: T1, Hordeum HPPD variant L353M, P321R, L320N (Hordeum vulgare, UniProt O48604, L320N/L353M/P321R); conditions: normalized to wild-type
T1 construct: His (N); made in house; host or cells: E. coli BL21 (DE3)
Description: (§1) HPPD produces homogentisic acid and CO2 from 4-hydroxyphenylpyruvate (4-HPP) and O2. The activity assay for HPPD is based on the analysis of homogentisic acid by reversed phase HPLC.
(§2) The assay mixture can contain 150 mM potassium phosphate buffer pH 7.0, 50 mM L-ascorbic acid, 100 μM Catalase (Sigma-Aldrich), 1 μM FeSO4 and 0.2 units of purified HPPD enzyme in a total volume of 505 μl. 1 unit is defined as the amount of enzyme that is required to produce 1 nmol of HGA per minute at 20° C.
(§3) After a preincubation of 30 min the reaction is started by adding 4-HPP to a final concentration of 0.05 mM. The reaction is allowed to proceed for 45 min at room temperature. The reaction is stopped by the addition of 50 μl of 4.5 M phosphoric acid. The sample is filtered using a […] pore size PVDF filtration device.
(§4) 5 μl of the cleared sample is analyzed on an UPLC HSS T3 column (particle size 1.8 μm, dimensions 2,1×50 mm; Waters) by isocratic elution using 90% 20 mM NaH2PO4 pH 2.2, 10% methanol (v/v).
(§5) HGA is detected electrochemically at 750 mV (mode: DC; polarity: positive) and quantified by integrating peak areas (Empower software; Waters).
(§6) Inhibitors are dissolved in DMSO (dimethylsulfoxide) to a concentration of 0.5 mM. From this stock solution serial five-fold dilutions are prepared in DMSO, which are used in the assay. The respective inhibitor solution accounts for 1% of the assay volume. […] Activities are normalized by setting the uninhibited enzyme activity to 100%. IC50 values are calculated using non-linear regression.
(§7) Purified, mutant HPPD enzymes are obtained by the methods described above. Dose response and kinetic measurements are carried out using the described HPPD activity assay. Apparent michaelis constants (Km) and maximal reaction velocities (Vmax) are calculated by non-linear regression with the software GraphPad Prism 5 (GraphPad Software, La Jolla, USA) using a substrate inhibition model. […] Weighted means (by standard error) of Km and IC50 values are calculated from at least three independent experiments.
(§8) Field performance of the optimized HPPD enzyme, which is used as a herbicide tolerance trait may depend not only on its lack of sensitivity towards HPPD inhibiting herbicides but also on its activity. To assess the potential performance of a herbicide tolerance trait a tolerance index (TI) is calculated using the following formula: […]

[2] = target: T2, Hordeum HPPD variant F377L (Hordeum vulgare, UniProt O48604, A164G/F377L/R146V/R147D/R148G); conditions: normalized to wild-type
T2 construct: His (N); made in house; host or cells: E. coli BL21 (DE3)
Description: as §1, §2, §3, §4, §5, §6, §7, §8

[3] = target: T3, Hordeum HPPD variant R309K (Hordeum vulgare, UniProt O48604, A164G/R146V/R147D/R148G/R309K); conditions: normalized to wild-type
T3 construct: His (N); made in house; host or cells: E. coli BL21 (DE3)
Description: as §1, §2, §3, §4, §5, §6, §7, §8

[4] = target: T4, Hordeum HPPD variant F404L (Hordeum vulgare, UniProt O48604, A164G/F404L/R146V/R147D/R148G); conditions: normalized to wild-type
T4 construct: His (N); made in house; host or cells: E. coli BL21 (DE3)
Description: as §1, §2, §3, §4, §5, §6, §7, §8

[5] = target: T5, Hordeum HPPD variant S252T (Hordeum vulgare, UniProt O48604, A164G/R146V/R147D/R148G/S252T); conditions: normalized to wild-type
T5 construct: His (N); made in house; host or cells: E. coli BL21 (DE3)
Description: as §1, §2, §3, §4, §5, §6, §7, §8

[6] = target: T6, Hordeum HPPD variant L320H (Hordeum vulgare, UniProt O48604, A164G/L320H/R146V/R147D/R148G); conditions: normalized to wild-type
T6 construct: His (N); made in house; host or cells: E. coli BL21 (DE3)
Description: as §1, §2, §3, §4, §5, §6, §7, §8

[7] = target: T7, Hordeum HPPD variant L320H, P321A (Hordeum vulgare, UniProt O48604, L320H/P321A); conditions: normalized to wild-type
T7 construct: His (N); made in house; host or cells: E. coli BL21 (DE3)
Description: as §1, §2, §3, §4, §5, §6, §7, §8

[8] = target: T8, Arabidopsis HPPD variant M335H, P336G (Arabidopsis thaliana, UniProt P93836, M335H/P336G); conditions: normalized to wildtype
T8 construct: His6 (N); made in house; host or cells: E. coli BL21 (DE3)
Description: as §1, §2, §3, §4, §5, §6, §7, §8

[9] = target: T9, Arabidopsis HPPD variant M335H, P336G, E363Q (Arabidopsis thaliana, UniProt P93836, E363Q/M335H/P336G); conditions: normalized to wildtype
T9 construct: His6 (N); made in house; host or cells: E. coli BL21 (DE3)
Description: as §1, §2, §3, §4, §5, §6, §7, §8

[10] = target: T10, Arabidopsis HPPD variant M335H, P336A (Arabidopsis thaliana, UniProt P93836, M335H/P336A); conditions: normalized to wildtype
T10 construct: His6 (N); made in house; host or cells: E. coli BL21 (DE3)
Description: as §1, §2, §3, §4, §5, §6, §7, §8

[11] = target: T11, Arabidopsis HPPD variant F381L (Arabidopsis thaliana, UniProt P93836, F381L); conditions: normalized to wildtype
T11 construct: His6 (N); made in house; host or cells: E. coli BL21 (DE3)
Description: as §1, §2, §3, §4, §5, §6, §7, §8

[12] = target: T12, Hordeum HPPD variant L250M (Hordeum vulgare, UniProt O48604, A164G/L250M/R146V/R147D/R148G); conditions: normalized to wild-type
T12 construct: His (N); made in house; host or cells: E. coli BL21 (DE3)
Description: as §1, §2, §3, §4, §5, §6, §7, §8

T6 sequence (O48604 whole entry R146V/R147D/R148G/A164G/L320H): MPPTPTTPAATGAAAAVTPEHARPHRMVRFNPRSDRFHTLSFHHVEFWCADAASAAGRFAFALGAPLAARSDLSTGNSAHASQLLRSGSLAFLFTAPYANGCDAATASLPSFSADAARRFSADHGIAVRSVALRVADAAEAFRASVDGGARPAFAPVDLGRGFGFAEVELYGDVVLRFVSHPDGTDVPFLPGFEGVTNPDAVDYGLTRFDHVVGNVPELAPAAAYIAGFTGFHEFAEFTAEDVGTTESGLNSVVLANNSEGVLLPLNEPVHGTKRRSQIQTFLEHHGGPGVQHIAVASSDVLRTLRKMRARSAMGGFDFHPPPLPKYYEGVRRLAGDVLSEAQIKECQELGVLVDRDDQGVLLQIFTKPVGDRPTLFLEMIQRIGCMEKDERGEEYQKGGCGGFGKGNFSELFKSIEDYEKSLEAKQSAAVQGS
T11 sequence (P93836 whole entry F381L): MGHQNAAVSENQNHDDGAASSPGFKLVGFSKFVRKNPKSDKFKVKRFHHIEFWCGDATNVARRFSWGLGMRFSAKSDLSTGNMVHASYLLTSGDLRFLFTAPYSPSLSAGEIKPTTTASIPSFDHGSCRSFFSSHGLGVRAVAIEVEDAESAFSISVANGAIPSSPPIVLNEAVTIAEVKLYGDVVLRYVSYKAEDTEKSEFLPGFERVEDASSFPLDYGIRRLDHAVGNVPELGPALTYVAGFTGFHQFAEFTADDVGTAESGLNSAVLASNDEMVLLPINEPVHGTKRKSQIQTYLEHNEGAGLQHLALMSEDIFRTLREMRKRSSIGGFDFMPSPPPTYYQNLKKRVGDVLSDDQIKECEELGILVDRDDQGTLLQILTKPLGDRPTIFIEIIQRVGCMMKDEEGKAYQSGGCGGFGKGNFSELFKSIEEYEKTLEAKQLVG
T9 sequence (P93836 whole entry M335H/P336G/E363Q): as the sequence (P93836 whole entry F381L) above, with M335H, P336G, E363Q, L381F counted along it
T12 sequence (O48604 whole entry R146V/R147D/R148G/A164G/L250M): as the sequence (O48604 whole entry R146V/R147D/R148G/A164G/L320H) above, with L250M, H320L counted along it
T1 sequence (O48604 whole entry R146V/R147D/R148G/A164G/L320N/P321R/L353M): as the sequence (O48604 whole entry R146V/R147D/R148G/A164G/L320H) above, with H320N, P321R, L353M counted along it
T3 sequence (O48604 whole entry R146V/R147D/R148G/A164G/R309K): as the sequence (O48604 whole entry R146V/R147D/R148G/A164G/L320H) above, with R309K, H320L counted along it
T8 sequence (P93836 whole entry M335H/P336G): as the sequence (P93836 whole entry F381L) above, with M335H, P336G, L381F counted along it
T7 sequence (O48604 whole entry R146V/R147D/R148G/A164G/L320H/P321A): as the sequence (O48604 whole entry R146V/R147D/R148G/A164G/L320H) above, with P321A counted along it
T10 sequence (P93836 whole entry M335H/P336A): as the sequence (P93836 whole entry F381L) above, with M335H, P336A, L381F counted along it
T2 sequence (O48604 whole entry R146V/R147D/R148G/A164G/F377L): as the sequence (O48604 whole entry R146V/R147D/R148G/A164G/L320H) above, with H320L, F377L counted along it
T5 sequence (O48604 whole entry R146V/R147D/R148G/A164G/S252T): as the sequence (O48604 whole entry R146V/R147D/R148G/A164G/L320H) above, with S252T, H320L counted along it
T4 sequence (O48604 whole entry R146V/R147D/R148G/A164G/F404L): as the sequence (O48604 whole entry R146V/R147D/R148G/A164G/L320H) above, with H320L, F404L counted along it

Row | Compound | Normalized tolerance index (TI) [1] | Normalized tolerance index (TI) [2] | Normalized tolerance index (TI) [3] | Normalized tolerance index (TI) [4] | Normalized tolerance index (TI) [5] | Normalized tolerance index (TI) [6] | Normalized tolerance index (TI) [7] | Normalized tolerance index (TI) [8] | Normalized tolerance index (TI) [9] | Normalized tolerance index (TI) [10] | Normalized tolerance index (TI) [11] | Normalized tolerance index (TI) [12]
1 | Cn1nnnc1NC(=O)c1c(F)cc(Cl)c(S(C)(=O)=O)c1Cl [Inhibitor 1, 2,4-dichloro-6-fluoro-3-methylsulfonyl-N-(1-methyltetrazol-5-yl)benzamide] | 1.9 | 11.8 | 2.6 | 1.6 | 1.8 | 4 and 4.6 | 3.7 | 0.5 | 0.2 | 0.6 | 1.2 | 3.1
2 | CSc1c(Cl)cc(F)c(C(=O)Nc2ncnn2C)c1Cl [Inhibitor 3, 2,4-dichloro-6-fluoro-3-methylsulfanyl-N-(2-methyl-1,2,4-triazol-3-yl)benzamide] | 0.9 | 2 | 3 | 1.8 | 11.1 | 1.9 | 14.3 | 0.1 | 0.3 | 0.2 | 0.2 | 1
